{
  "source": "patent US20240165188A1",
  "about": "“Method for the treatment of microbial overgrowth, imbalance and infections” (TRINUTRA LTD., priority 2021, published 2024)",
  "tested_on": "C. albicans (Robin) Berkhout (ATCC catalogue no. 96901), fluconazole resistant",
  "assay": "Disc diffusion assay, inhibition of Candida albicans growth on agar",
  "format": "cell-based",
  "settings": "C. albicans fluconazole-resistant strain; undiluted (100%); 24 hours; FIG. 2",
  "description": "A frozen stock of C. albicans (Robin) Berkhout (ATCC catalogue no. 96901) was thawed and incubated at 25 degrees Celsius for 72 hours in 200 YM medium. Following dilution 1:10, the culture was incubated for a further 24 hours. Following further dilution (1:10), the culture is grown for an additional 3 hours prior to use.\nAntibiotic assay discs (Whatman discs, supplied by Sigma-Aldrich) were prepared in advance by means of saturating them with the test solutions and controls.\nAgar plates were prepared and labelled as described in Example 1, above. The plates were then incubated at 25° C. and the area of inhibited fungal growth was measured and photographed after 24 hours.\n• 1. Black seed oil 3% thymoquinone (TQ), 2% FFA. • 2. Black seed oil 3% thymoquinone (TQ), 10% FFA. • 3. Black seed oil 0.5% thymoquinone (TQ), 2% FFA. • 4. Black seed oil 0.5% thymoquinone (TQ), 10% FFA. • 5. Black seed oil 1.8% thymoquinone (TQ), 2% FFA formulation\n• 6. Negative control (empty discs) • 7. Positive control I (0.05% zinc pyrithione). • 8. Positive control II (100 micrograms fluconazole)\nAll concentrations given above are w/w concentrations. The various black seed oil preparations were cold-pressed Nigella sativa oils obtained from NS Oils Ltd. (Kibbutz Sa'ad, Israel).\nEach of the 5 test substances (at a concentration of 100%, i.e., undiluted) was assayed for antifungal activity, as described above.",
  "data": [
    {"smiles": "OC(Cn1cncn1)(Cn1cncn1)c1ccc(F)cc1F", "note": "[fluconazole]", "values": [
      {"measurement": "size of the fungal inhibition zones (antifungal effect)", "value": "lack of inhibitory activity"}
    ]}
  ]
}
